The nature of data set [1]: Photochromic properties of photochromic laminate (plastic lens) prepared by coating method. The settings on record: 40 µm photochromic layer on thiourethane lens, 0.25 mmol compound per 100 g monomers, after color development. In kind it is physicochemical. The text has this:
(§1) First, the photochromic compound obtained in Example 1, a photoinitiator, and a polymerizable compound were mixed to obtain a curable composition.
(§2) Polyethylene glycol dimethacrylate (average molecular weight: 736): 42 parts by mass • Polyethylene glycol dimethacrylate (average molecular weight: 536): 12 parts by mass • Trimethylolpropane trimethacrylate: 38 parts by mass γ-methacryloyloxypropyl trimethoxysilane: 2 parts by mass Glycidyl methacrylate: 1 part by mass
(§3) Note that the photochromic compound was added to the curable composition so that the amount of the photochromic compound was 0.25 mmol based on 100 g of the total amount of the radical-polymerizable monomers.
(§4) Phenylbis(2,4,6-trimethylbenzoyl)phosphine oxide (photoinitiator: Omnirad 819): 0.3 parts by mass Ethylene bis(oxyethylene) bis[3-(5-tert-butyl-4-hydroxy-m-tolyl)propionate] (stabilizer, Irganox 245): 1 part by mass Bis(1,2,2,6,6-pentamethyl-4-piperidyl) sebacate: 3 parts by mass Leveling agent (L7001) manufactured by Dow Corning Toray Co.,Ltd.: 0.1 part by mass
(§5) First, a thiourethane-based plastic lens having a central thickness of 2 mm and a refractive index of 1.60 was prepared as the optical substrate. Note that this thiourethane-based plastic lens was pre-treated by alkaline etching with a 10% sodium hydroxide aqueous solution at 50°C for 5 minutes, followed by sufficient washing with distilled water.
(§6) A surface of the above-described plastic lens was coated with a moisture-curable primer (product name: TR-SC-P, manufactured by Tokuyama Corporation) at a rotation frequency of 70 rpm for 15 seconds, followed by 1000 rpm for 10 seconds, using a spin coater (1H-DX2, manufactured by MIKASA CO., LTD), Subsequently, about 2 g of the photochromic curable composition obtained above was spin-coated at a rotation frequency of 60 rpm for 40 seconds, followed by 600 rpm for 10 to 20 seconds, to form a photochromic coating layer with a film thickness of 40 µm.
(§7) The lens with the surface coated with the photochromic curable composition (photochromic coating layer) was irradiated with light using a metal halide lamp with an output power of 200 mW/cm^2 in a nitrogen gas atmosphere for 90 seconds to cure the coating film. Subsequently, the lens was further heated at 110°C for 1 hour to prepare a photochromic laminate having a photochromic layer.
In the same manner as in Example 26, photochromic laminates were prepared using the photochromic compounds obtained in Examples 2 to 25.
(§8) • [1] Maximum Absorption Wavelength (λmax): The maximum absorption wavelength after color development, measured using a spectrophotometer (instantaneous multichannel photodetector MCPD3000) manufactured by Otsuka Electronics Co., Ltd. was used as an indicator for the color tone during the color development. • [2] 23°C Color Optical Density (A23): A difference between an absorbancy measured after light irradiation at 23°C for 300 seconds {ε(300)} and an absorbancy without light irradiation ε(0) at the maximum absorption wavelength was used as an indicator for the color optical density. […] 23°C color fading half-life [τ1/2 (sec.)]: A time required for the absorbancy of the sample at the maximum absorption wavelength to decrease to 1/2 of {ε(300)-ε(0)} when the light irradiation was terminated after the light irradiation at 23°C for 300 seconds, was used as an indicator for the color fading speed. The shorter this time, the higher the color fading speed. • [4] Residual rate (A120/A0×100): The obtained photochromic plastic lens was subjected to accelerated deterioration using a xenon weather meter X25 manufactured by Suga Test Instruments Co., Ltd. for 120 hours. Subsequently, the color optical density was evaluated before and after the test, then a color optical density before the test (A0) and a color optical density after the test (A120) were measured, and a ratio (A120/A0) was defined as a residual rate. The residual rate was used as an indicator for a color developing durability. […]

Data set [2] in a line: Accelerated deterioration (xenon weather meter X25, 120 hours) of photochromic laminate prepared by coating method. The settings on record: 0.25 mmol per 100 g monomers, A120/A0×100 after 120 hours xenon weather meter. In kind it is physicochemical.
Description: as §1, §2, §3, §4, §5, §6, §7
as §8, with “durability. The higher the residual rate, the higher the color developing durability.” for “durability.”

This passage reports Maximum absorption wavelength and Residual rate results from patent publication EP4692072A1, “PHOTOCHROMIC COMPOUND, PROPARGYL ALCOHOL COMPOUND, CURABLE COMPOSITION, OPTICAL ARTICLE, LENS, AND SPECTACLES” (TOKUYAMA CORPORATION, priority 2023, dated 2024).

With `CCCCCCC1(CCCCCC)c2ccccc2-c2c1c1c(c3cc(OC)ccc23)OC(c2ccc(F)cc2)(c2ccc(N(CC)c3ccccc3)cc2)C=C1` (centres unmarked) [Example 4], the figures for the Maximum absorption wavelength in data set [1] and in data set [1] (listed as Formula (48)) were 489 nm and 601 nm, respectively. This compound came in with a Residual rate in data set [2] of 57%.

`COc1ccc(C2(c3ccc(N(c4ccccc4)C4CCCCC4)cc3)C=Cc3c4c(c5cc(OC)c(OC)cc5c3O2)-c2ccccc2C4(CCCCF)CCCCF)cc1` (centres unmarked) [Example 6]: the Maximum absorption wavelength is 481 nm in data set [1] and 593 nm in data set [1] (listed as Formula (53)). Besides, the figures for the Residual rate in data set [2] and in data set [2] (listed as Formula (53)) were 70% and 63%, respectively.

`CCCOc1ccc(C2(c3ccc(N(CC(F)(F)F)c4ccccc4)cc3)C=Cc3c4c(c5ccccc5c3O2)-c2ccccc2C42CCCCCCC2)cc1` (centres unmarked) [Example 9] displayed a Maximum absorption wavelength in data set [1] of 578 nm. For the same compound, the Residual rate in data set [2] came to 62%.

`COc1ccc(C2(c3ccc(N(C)c4ccccc4)cc3)C=Cc3c4c(c5cc(-c6c(OC)cc(OC)cc6OC)c(OC)cc5c3O2)-c2ccc(C)cc2C4(CCCSC)CCCSC)cc1` (centres unmarked) [Example 12]: the results for the Maximum absorption wavelength in data set [1] and in data set [1] (listed as Formula (66)) were 478 nm and 614 nm, respectively. Further, the Residual rate in data set [2] was determined as 65%.

Regarding `COc1cc2c3c(c4c(c2cc1OC)-c1ccc(-c2ccc(C(F)(F)F)cc2)cc1C4(CCCC(F)(F)F)CCCC(F)(F)F)C=CC(c1ccc(Oc2ccccc2)cc1)(c1ccc(N(C)c2ccccc2)cc1)O3` (centres unmarked) [Example 13], the results for the Maximum absorption wavelength in data set [1] and in data set [1] (listed as Formula (69)) were 489 nm and 605 nm, respectively. Besides, the Residual rate amounted to 65% in data set [2] and 60% in data set [2] (listed as Formula (69)).

Consider `CCCCC1(CCCC)c2cc([Si](C)(c3ccccc3)c3ccccc3)ccc2-c2c1c1c(c3cc(OC)c(C)cc23)OC(c2ccc(C)cc2)(c2ccc(N(C)c3ccccc3)cc2)C=C1` (centres unmarked) [Example 15], for which the Maximum absorption wavelength worked out at 487 nm in data set [1] and 602 nm in data set [1] (listed as Formula (75)). The compound also returned a Residual rate in data set [2] of 58%.

Consider `CCCOc1ccc(C2(c3ccc(N(CC(F)(F)F)c4ccccc4)cc3)C=Cc3c4c(c5cc(-c6ccc(OC)cc6)c(C)cc5c3O2)-c2ccc(C)cc2C4(CC)CC)cc1` (centres unmarked) [Example 17], for which the Maximum absorption wavelength in data set [1] was 484 nm; in data set [1] (listed as Formula (78)), 592 nm. In data set [2], this compound gave a Residual rate of 56%.

The compound `CCCc1ccc(C2(c3ccc(N(C)c4ccccc4)cc3)C=Cc3c4c(c5cc(-c6ccc(C)cc6)c(C)cc5c3O2)-c2ccccc2C4(CCOC)CCOC)cc1` (centres unmarked) [Example 18] registered a Maximum absorption wavelength in data set [1] of 587 nm. Also, the Residual rate in data set [2] is listed as 60%.

With `COCCCC1(CCCOC)c2cc(-c3ccc(C(C)(C)C)cc3)ccc2-c2c1c1c(c3cc(OC)c(OC)cc23)OC(c2ccc(N(CCOC)c3ccccc3)cc2)(c2ccc3c(c2)OCCO3)C=C1` (centres unmarked) [Example 20], the Maximum absorption wavelength was determined as 486 nm in data set [1] and 608 nm in data set [1] (listed as Formula (81)). In addition, the Residual rate in data set [2] is 67%; in data set [2] (listed as Formula (81)), 63%.

Compound `CCCC1(CCC)c2ccccc2-c2c1c1c(c3cc(OC)c(N(c4ccccc4)c4ccccc4)cc23)OC(c2ccc(C)cc2)(c2ccc(N(C)c3ccccc3)cc2)C=C1` (centres unmarked) [Example 22] yielded a Maximum absorption wavelength in data set [1] of 530 nm. In addition, the Residual rate in data set [2] is 68%.

On to `COc1ccc(C2(c3ccc(N(C)c4ccccc4)cc3)C=Cc3c4c(c5cc6c(cc5c3O2)SC(C)(C)S6)-c2ccc(-c3ccc(F)c(F)c3F)cc2C42CCCCCCCCCCC2)cc1` (centres unmarked) [Example 52], for which the Maximum absorption wavelength in data set [1] was found to be 488 nm; in data set [1] (listed as Formula (93)) it was 604 nm. Besides, the Residual rate in data set [2] is 58%; in data set [2] (listed as Formula (93)), 56%.

Consider `COc1ccc(C2(c3ccc(N(C)c4ccccc4)cc3)C=Cc3c4c(c5cc(-c6ccc(N7CCSCC7)cc6)c(OC)cc5c3O2)-c2ccc(OC)cc2C4(CCC(F)(F)F)CCC(F)(F)F)cc1` (centres unmarked) [Example 54], for which the values for the Maximum absorption wavelength in data set [1] and in data set [1] (listed as Formula (96)) were 501 nm and 628 nm, respectively. Further, the Residual rate in data set [2] was found to be 67%.

As for `COCCCCC1(CCCCOC)c2cc(-c3ccccc3)ccc2-c2c1c1c(c3cc(OC)c(N4CCS(=O)(=O)CC4)cc23)OC(c2ccc(OCCOCCOC)cc2)(c2ccc(N(C)c3ccccc3)cc2)C=C1` (centres unmarked) [Example 58], the Maximum absorption wavelength in data set [1] was 498 nm; in data set [1] (listed as Formula (114)), 617 nm. This compound yielded a Residual rate in data set [2] of 60%.

As for `CCCc1ccc(C2(c3ccc(N(C)c4ccccc4)cc3)C=Cc3c4c(c5cc(OC)ccc5c3O2)-c2ccccc2C42CCCCCCC2)cc1` (centres unmarked) [Example 61], the values for the Maximum absorption wavelength in data set [1] and in data set [1] (listed as Formula (122)) were 487 nm and 564 nm, respectively. In addition, the figures for the Residual rate in data set [2] and in data set [2] (listed as Formula (122)) were 59% and 57%, respectively.
